Experimental data as given in article PMC2248166, “Quantitative peptide binding motifs for 19 human and mouse MHC class I molecules derived using positional scanning combinatorial peptide libraries” (Immunome Research, 2008).
Where a SMILES comes first, the peptide text is derived from it.

Target: HLA A*3201 (Homo sapiens, UniProt P04439, A270S/D101S/D185E/E176V/E277Q/F133L/G103R/G107R/G231S/H175R/I121M/I218V/I322F/K168Q/L105A/L300P/L318F/M331R/P208A/P217A/Q94H/R106L/R138Q/S129P/T104I/T323A/T345S/V100E/V321M/V358M)
Assay: biochemical
Type: binding

SMILES | IC50 [nM]
CC[C@H](C)[C@H](NC(=O)[C@@H]1CCCN1C(=O)[C@H](CC(C)C)NC(=O)[C@@H](NC(=O)[C@H](Cc1ccc(O)cc1)NC(=O)[C@H](Cc1ccccc1)NC(=O)[C@H](CCSC)NC(=O)[C@H](CC(C)C)NC(=O)[C@@H](N)Cc1c[nH]cn1)[C@@H](C)O)C(=O)O [3102.0397] (H-HLMFYTLPI-OH) | 0.18
CC[C@H](C)[C@H](NC(=O)[C@H](CC(N)=O)NC(=O)[C@H](CC(N)=O)NC(=O)[C@@H](NC(=O)[C@@H]1CCCN1C(=O)[C@H](CCC(N)=O)NC(=O)[C@H](CC(N)=O)NC(=O)[C@H](CC(C)C)NC(=O)[C@@H](N)CCCNC(=N)N)C(C)C)C(=O)O [3102.0398] (H-RLNQPVNNI-OH) | 25
CC[C@H](C)[C@H](N)C(=O)N[C@@H](CO)C(=O)N[C@@H](Cc1c[nH]c2ccccc12)C(=O)N[C@@H](CCSC)C(=O)N[C@@H](CCSC)C(=O)N[C@@H](CCCCN)C(=O)N[C@@H](CC(C)C)C(=O)NCC(=O)N[C@H](C(=O)O)[C@@H](C)CC [3102.0399] (H-ISWMMKLGI-OH) | 42
CC[C@H](C)[C@H](NC(=O)[C@@H](NC(=O)[C@H](CC(N)=O)NC(=O)[C@@H](NC(=O)[C@@H](NC(=O)[C@H](C)NC(=O)[C@H](Cc1c[nH]c2ccccc12)NC(=O)[C@H](CC(C)C)NC(=O)[C@@H](N)[C@@H](C)O)[C@@H](C)CC)[C@@H](C)CC)[C@@H](C)O)C(=O)O [3102.0403] (H-TLWAIINTI-OH) | 1.5
CC[C@H](C)[C@H](NC(=O)[C@@H](NC(=O)[C@@H]1CCCN1C(=O)[C@@H](NC(=O)[C@H](Cc1ccccc1)NC(=O)[C@H](CC(N)=O)NC(=O)[C@H](CCSC)NC(=O)[C@@H](NC(=O)[C@@H](N)CO)C(C)C)[C@@H](C)CC)[C@@H](C)CC)C(=O)O [3102.0404] (H-SVMNFIPII-OH) | 0.6
CC[C@H](C)[C@H](N)C(=O)N[C@H](C(=O)N[C@@H](Cc1ccc(O)cc1)C(=O)N1CCC[C@H]1C(=O)N[C@@H](CCCCN)C(=O)N[C@@H](C)C(=O)N[C@@H](CC(C)C)C(=O)N[C@H](C(=O)N[C@@H](Cc1ccccc1)C(=O)O)C(C)C)[C@@H](C)O [3102.0405] (H-ITYPKALVF-OH) | 3
CC[C@H](C)[C@H](NC(=O)[C@H](CC(C)C)NC(=O)[C@H](CC(C)C)NC(=O)[C@H](CC(C)C)NC(=O)[C@H](CC(C)C)NC(=O)[C@H](CC(N)=O)NC(=O)CNC(=O)[C@H](CC(C)C)NC(=O)[C@@H](N)CCCCN)C(=O)O [3102.0406] (H-KLGNLLLLI-OH) | 0.72
CC[C@H](C)[C@H](NC(=O)[C@H](Cc1ccc(O)cc1)NC(=O)CNC(=O)[C@H](CO)NC(=O)[C@@H](NC(=O)[C@@H](N)CCCCN)[C@@H](C)O)C(=O)N[C@@H](CO)C(=O)N[C@@H](CO)C(=O)N[C@@H](Cc1ccccc1)C(=O)O [3102.0408] (H-KTSGYISSF-OH) | 0.5
CC[C@H](C)[C@H](NC(=O)[C@@H](NC(=O)[C@H](CC(C)C)NC(=O)[C@@H](NC(=O)[C@@H](NC(=O)[C@H](CO)NC(=O)[C@H](CC(C)C)NC(=O)[C@H](CCSC)NC(=O)[C@@H](N)[C@@H](C)O)[C@@H](C)CC)[C@@H](C)CC)C(C)C)C(=O)O [3102.0409] (H-TMLSIILVI-OH) | 16
CC(C)C[C@H](NC(=O)[C@@H](N)Cc1ccc(O)cc1)C(=O)N[C@@H](Cc1ccccc1)C(=O)N[C@@H](CO)C(=O)N[C@@H](CCC(N)=O)C(=O)N[C@@H](CC(N)=O)C(=O)N[C@@H](Cc1ccc(O)cc1)C(=O)N[C@@H](CO)C(=O)N[C@@H](Cc1ccccc1)C(=O)O [3102.0410] (H-YLFSQNYSF-OH) | 1.4
CC[C@H](C)[C@H](N)C(=O)N[C@@H](CC(C)C)C(=O)N[C@H](C(=O)N[C@H](C(=O)N[C@@H](Cc1ccccc1)C(=O)N[C@H](C(=O)N[C@H](C(=O)N[C@@H](C)C(=O)N[C@H](C(=O)O)[C@@H](C)CC)C(C)C)[C@@H](C)O)[C@@H](C)CC)C(C)C [3102.0411] (H-ILVIFTVAI-OH) | 15
CC[C@H](C)[C@H](NC(=O)[C@@H](N)C(C)C)C(=O)N[C@@H](CC(N)=O)C(=O)N[C@@H](Cc1ccc(O)cc1)C(=O)N[C@@H](Cc1ccccc1)C(=O)N[C@@H](CC(N)=O)C(=O)N[C@@H](CCCNC(=N)N)C(=O)N[C@@H](CCSC)C(=O)N[C@@H](Cc1ccccc1)C(=O)O [3102.0412] (H-VINYFNRMF-OH) | 4.3
CC[C@H](C)[C@H](NC(=O)[C@H](Cc1ccccc1)NC(=O)[C@H](CCCCN)NC(=O)[C@@H](NC(=O)[C@H](Cc1ccc(O)cc1)NC(=O)[C@H](CCC(N)=O)NC(=O)[C@@H](NC(=O)[C@@H](N)CC(C)C)C(C)C)[C@@H](C)CC)C(=O)N[C@@H](Cc1ccccc1)C(=O)O [3102.0413] (H-LVQYIKFIF-OH) | 20
CC[C@H](C)[C@H](NC(=O)[C@@H](N)CCCCN)C(=O)N[C@@H](CC(=O)O)C(=O)N[C@@H](CC(N)=O)C(=O)N[C@@H](Cc1ccc(O)cc1)C(=O)N[C@H](C(=O)N[C@H](C(=O)N[C@@H](CCCCN)C(=O)N[C@@H](Cc1ccccc1)C(=O)O)C(C)C)C(C)C [3102.0414] (H-KIDNYVVKF-OH) | 19
CC[C@H](C)[C@H](N)C(=O)N[C@@H](CO)C(=O)N[C@@H](CC(C)C)C(=O)N[C@@H](Cc1ccccc1)C(=O)N[C@@H](Cc1ccc(O)cc1)C(=O)N[C@H](C(=O)N[C@@H](Cc1ccccc1)C(=O)N[C@@H](C)C(=O)N[C@H](C(=O)O)[C@@H](C)CC)[C@@H](C)O [3102.0415] (H-ISLFYTFAI-OH) | 0.57
C[C@@H](O)[C@H](NC(=O)CN)C(=O)N[C@@H](Cc1c[nH]cn1)C(=O)N[C@@H](Cc1ccc(O)cc1)C(=O)N[C@@H](CCC(N)=O)C(=O)N[C@@H](CC(N)=O)C(=O)N[C@@H](Cc1c[nH]cn1)C(=O)NCC(=O)N[C@@H](Cc1ccccc1)C(=O)O [3102.0417] (H-GTHYQNHGF-OH) | 6
CC[C@H](C)[C@H](NC(=O)[C@@H](NC(=O)[C@@H](N)CO)[C@@H](C)CC)C(=O)N[C@@H](CC(N)=O)C(=O)N[C@@H](CO)C(=O)N[C@@H](CC(N)=O)C(=O)N[C@H](C(=O)N[C@H](C(=O)N[C@@H](Cc1c[nH]c2ccccc12)C(=O)O)[C@@H](C)O)C(C)C [3102.0419] (H-SIINSNVTW-OH) | 11
CC[C@H](C)[C@H](NC(=O)[C@H](CC(C)C)NC(=O)[C@H](Cc1ccccc1)NC(=O)[C@@H](NC(=O)[C@@H](N)CCCNC(=N)N)[C@@H](C)O)C(=O)N[C@@H](CC(=O)O)C(=O)N[C@@H](CC(C)C)C(=O)N[C@@H](C)C(=O)N[C@@H](Cc1ccccc1)C(=O)O [3102.0420] (H-RTFLIDLAF-OH) | 0.48
CC[C@H](C)[C@H](NC(=O)[C@H](CO)NC(=O)[C@H](CC(C)C)NC(=O)[C@@H](NC(=O)[C@H](Cc1ccccc1)NC(=O)[C@H](CC(N)=O)NC(=O)[C@H](CCC(=O)O)NC(=O)[C@@H](NC(=O)[C@@H](N)CCCNC(=N)N)[C@@H](C)O)C(C)C)C(=O)O [3102.0421] (H-RTENFVLSI-OH) | 1.6
CC[C@H](C)[C@H](N)C(=O)N[C@H](C(=O)N[C@@H](Cc1ccc(O)cc1)C(=O)N[C@@H](CCC(=O)O)C(=O)N[C@@H](CCCCN)C(=O)N[C@@H](CO)C(=O)N[C@@H](CC(N)=O)C(=O)N[C@@H](CC(N)=O)C(=O)N[C@H](C(=O)O)[C@@H](C)CC)[C@@H](C)O [3102.0422] (H-ITYEKSNNI-OH) | 18
CC[C@H](C)[C@H](NC(=O)[C@@H](NC(=O)[C@H](CCCNC(=N)N)NC(=O)[C@@H]1CCCN1C(=O)[C@H](Cc1ccccc1)NC(=O)[C@H](Cc1ccccc1)NC(=O)[C@H](CCSC)NC(=O)[C@@H](NC(=O)[C@H](C)N)[C@@H](C)CC)[C@@H](C)O)C(=O)O [3102.0423] (H-AIMFFPRTI-OH) | 1.1
CC(C)C[C@H](NC(=O)[C@@H](N)C(C)C)C(=O)N[C@@H](Cc1ccc(O)cc1)C(=O)N[C@@H](CC(N)=O)C(=O)N[C@@H](CC(N)=O)C(=O)N[C@H](C(=O)N[C@H](C(=O)N[C@@H](CCC(=O)O)C(=O)N[C@@H](Cc1ccccc1)C(=O)O)C(C)C)C(C)C [3102.0424] (H-VLYNNVVEF-OH) | 1.5
CC[C@H](C)[C@H](NC(=O)[C@@H](N)CO)C(=O)N[C@@H](Cc1ccc(O)cc1)C(=O)N[C@@H](CCCNC(=N)N)C(=O)N[C@@H](CCSC)C(=O)N[C@@H](CO)C(=O)N[C@@H](Cc1ccc(O)cc1)C(=O)N[C@@H](CCC(N)=O)C(=O)N[C@@H](Cc1ccccc1)C(=O)O [3102.0425] (H-SIYRMSYQF-OH) | 0.8
CSCC[C@H](NC(=O)[C@H](C)NC(=O)[C@@H](N)CC(C)C)C(=O)N[C@@H](CC(N)=O)C(=O)N[C@@H](CO)C(=O)N[C@H](C(=O)N[C@@H](Cc1ccccc1)C(=O)N[C@H](C(=O)N[C@@H](Cc1ccccc1)C(=O)O)[C@@H](C)O)C(C)C [3102.0426] (H-LAMNSVFTF-OH) | 16
CC[C@H](C)[C@H](NC(=O)[C@H](CC(C)C)NC(=O)[C@@H](NC(=O)[C@H](CC(N)=O)NC(=O)[C@H](CC(N)=O)NC(=O)[C@H](CO)NC(=O)[C@H](Cc1ccccc1)NC(=O)[C@H](CCSC)NC(=O)[C@@H](N)CCCCN)C(C)C)C(=O)O [3102.0427] (H-KMFSNNVLI-OH) | 1.1
CC[C@H](C)[C@H](NC(=O)[C@H](CC(C)C)NC(=O)[C@@H](N)CCCNC(=N)N)C(=O)N[C@@H](CC(N)=O)C(=O)N[C@@H](CC(N)=O)C(=O)N[C@@H](CCCNC(=N)N)C(=O)N[C@H](C(=O)N[C@@H](CC(C)C)C(=O)N[C@@H](Cc1ccccc1)C(=O)O)C(C)C [3102.0428] (H-RLINNRVLF-OH) | 5.7
CC[C@H](C)[C@H](NC(=O)[C@H](CCCCN)NC(=O)[C@H](Cc1ccccc1)NC(=O)[C@H](CC(N)=O)NC(=O)[C@H](CC(N)=O)NC(=O)[C@H](Cc1ccccc1)NC(=O)[C@H](CC(C)C)NC(=O)[C@@H](NC(=O)[C@@H](N)CCCNC(=N)N)C(C)C)C(=O)O [3102.0429] (H-RVLFNNFKI-OH) | 0.89
CC[C@H](C)[C@H](NC(=O)[C@@H](NC(=O)[C@H](CC(N)=O)NC(=O)[C@H](Cc1ccccc1)NC(=O)[C@H](Cc1ccccc1)NC(=O)[C@@H](NC(=O)[C@@H](NC(=O)[C@@H](NC(=O)[C@@H](N)CCCCN)C(C)C)C(C)C)[C@@H](C)CC)[C@@H](C)O)C(=O)O [3102.0430] (H-KVVIFFNTI-OH) | 8.3
